Data: ChEMBL document CHEMBL1201862, “PubChem BioAssay data set” (2004)
Calls of active or inactive are those of the source.

What was measured:
HEK293 = test: HEK293T cell viability loss, resazurin readout – resazurin fluorescence, cytotoxicity control for NF-kB activator project, SAR follow-up (AID 493251); format: functional, cell-based; settings: Homo sapiens
cells = format: functional, cell-based
BJ = test: BJ-TERT-LT-ST fibroblast viability loss – cell-based, RAS-independent, luminescence, dose response (AID 1935); format: functional; settings: Homo sapiens;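 also: BJ fibroblasts immortalized with TERT plus LT and ST oncogenes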
INS1 = test: INS-1E survival protection against cytokine death – cell-based, luminescence, retest, dose response (AID 449756); format: functional; settings: Rattus norvegicus;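 also: cell death triggered by IL-1 beta plus TNF-alpha plus IFN-gamma mixture; protective hits raise ATP signal compared with cytokine alone wells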
[1] = loss of viability in HepG2 cells – cell-based, CellTiter-Glo, cherry-picked, cytotoxicity control for Shn3 inhibitor project, dose response (AID 624134); format: functional
[2] = Counterscreen for AddAB inhibitors: absorbance-based bacterial cell-based high throughput dose response assay for inhibitors of bacterial viability. [Related pubchem assays (depositor defined):AID435030, AID449728, AID449731, AID488942, AID488955, AID488956]; format: functional
[3] = DRD fibroblast viability loss – cell-based, non-viral oncogenic, luminescence, dose response (AID 1934); format: functional; settings: Homo sapiens
[4] = reduction of Shn3 3'UTR-driven luciferase in osteoblasts – cell-based, Clone20 osteoblasts, firefly luciferase, cherry-picked, dose response (AID 624132); format: functional;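 also: firefly luciferase luminescence from reporter carrying the Shn3 3'UTR in osteoblasts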
[5] = Luminescence-based dose response cell-based high throughput screening assay for cytotoxic compounds using the IEC-6 intestinal epithelial cell line. [Related pubchem assays: 1858 (Summary AID.), 1825 (Counterscreen.), 1907 (Confirmation screen.)]; format: functional
Jurkat = test: SAR Analysis of small molecule inhibitors of T-cell specific antigen receptor-induced NF-kB activation in a Jurkat cell line using a luminescence assay - Set 2. [Related pubchem assays (depositor defined):AID435003, AID435012, AID465]; format: functional, cell-based; settings: Homo sapiens
[6] = target: T1, Sentrin-specific protease 7 (Homo sapiens, UniProt Q9BQF6); format: functional;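 also: Luminescence-based dose-response confirmation of ultra-high-throughput screening hits, measuring inhibition of SENP7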
T1 sequence (Q9BQF6 whole entry): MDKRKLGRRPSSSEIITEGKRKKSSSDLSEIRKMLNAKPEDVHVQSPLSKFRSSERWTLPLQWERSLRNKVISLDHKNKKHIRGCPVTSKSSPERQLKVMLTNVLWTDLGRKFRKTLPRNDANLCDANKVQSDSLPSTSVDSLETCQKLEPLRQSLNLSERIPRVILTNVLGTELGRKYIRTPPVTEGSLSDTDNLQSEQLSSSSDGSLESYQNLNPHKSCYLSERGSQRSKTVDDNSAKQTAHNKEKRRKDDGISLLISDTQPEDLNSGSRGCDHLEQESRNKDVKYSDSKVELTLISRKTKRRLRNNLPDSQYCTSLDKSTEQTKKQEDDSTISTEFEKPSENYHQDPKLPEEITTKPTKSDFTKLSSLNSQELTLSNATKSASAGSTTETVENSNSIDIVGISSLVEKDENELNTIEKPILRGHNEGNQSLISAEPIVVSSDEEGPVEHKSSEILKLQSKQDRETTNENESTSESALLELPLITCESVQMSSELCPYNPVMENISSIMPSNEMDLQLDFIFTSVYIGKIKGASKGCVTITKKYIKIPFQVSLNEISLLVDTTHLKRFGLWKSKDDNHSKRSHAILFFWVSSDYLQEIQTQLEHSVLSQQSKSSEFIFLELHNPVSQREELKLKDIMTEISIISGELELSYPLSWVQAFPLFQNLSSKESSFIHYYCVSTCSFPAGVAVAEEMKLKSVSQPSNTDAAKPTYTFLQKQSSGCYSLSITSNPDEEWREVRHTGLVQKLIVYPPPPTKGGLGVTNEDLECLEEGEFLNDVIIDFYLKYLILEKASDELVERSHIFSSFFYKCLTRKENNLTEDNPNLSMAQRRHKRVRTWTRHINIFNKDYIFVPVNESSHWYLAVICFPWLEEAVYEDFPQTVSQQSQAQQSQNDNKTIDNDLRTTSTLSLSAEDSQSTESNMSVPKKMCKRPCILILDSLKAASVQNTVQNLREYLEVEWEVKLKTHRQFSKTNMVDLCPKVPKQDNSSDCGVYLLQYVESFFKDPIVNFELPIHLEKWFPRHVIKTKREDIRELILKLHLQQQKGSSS

Caspase-6 = target: T2, Caspase-6 (Homo sapiens, UniProt P55212); test: inhibition of CASP6 peptide cleavage – biochemical, VEID-R110 fluorescence, cherry-pick, dose response (AID 720632)
T2 sequence (P55212 whole entry): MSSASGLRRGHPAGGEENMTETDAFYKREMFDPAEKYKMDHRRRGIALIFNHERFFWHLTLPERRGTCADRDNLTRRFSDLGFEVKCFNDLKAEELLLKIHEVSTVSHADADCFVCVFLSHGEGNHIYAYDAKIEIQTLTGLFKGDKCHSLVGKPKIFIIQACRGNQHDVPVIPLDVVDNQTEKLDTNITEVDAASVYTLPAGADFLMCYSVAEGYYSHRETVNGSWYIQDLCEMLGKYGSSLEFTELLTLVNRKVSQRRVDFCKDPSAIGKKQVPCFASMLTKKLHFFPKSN

Caspase-7 = Caspase-7 (Homo sapiens, UniProt P55210); test: caspase-7 enzyme inhibition, selectivity check – biochemical, DEVD-R110 fluorescence, cherry-pick, selectivity assay for caspase-6 inhibitor project, dose response (AID 743295); format: functional
Caspase-3 = target: T3, Caspase-3 (Homo sapiens, UniProt P42574); format: functional;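 also: Dose-response selectivity test against caspase-3 for candidate inhibitors of sentrin-specific proteases (SENPs)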
T3 sequence (P42574 whole entry): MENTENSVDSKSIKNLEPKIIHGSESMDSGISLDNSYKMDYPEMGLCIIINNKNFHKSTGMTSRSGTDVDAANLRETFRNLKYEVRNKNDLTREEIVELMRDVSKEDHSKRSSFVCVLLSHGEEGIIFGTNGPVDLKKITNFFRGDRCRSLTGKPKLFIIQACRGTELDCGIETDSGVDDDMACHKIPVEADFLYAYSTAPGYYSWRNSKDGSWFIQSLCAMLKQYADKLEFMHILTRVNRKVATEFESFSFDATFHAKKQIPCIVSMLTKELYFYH

Sequence of Caspase-7 (P55210 24-198 limits assumed): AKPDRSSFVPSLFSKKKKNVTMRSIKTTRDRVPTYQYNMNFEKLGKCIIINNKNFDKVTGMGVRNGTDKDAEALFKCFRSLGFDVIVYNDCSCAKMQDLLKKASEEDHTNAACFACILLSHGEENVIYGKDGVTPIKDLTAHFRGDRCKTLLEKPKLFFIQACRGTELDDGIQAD
Sequence of Caspase-7 (P55210 207-303 limits assumed): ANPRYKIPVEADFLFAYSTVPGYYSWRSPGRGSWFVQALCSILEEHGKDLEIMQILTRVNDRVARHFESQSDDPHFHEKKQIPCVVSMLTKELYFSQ

Row | Structure (SMILES) | IC50 (HEK293) | EC50 (cells) | EC50 (BJ) | AC50 (INS1) | AC50 [1] | IC50 [2] | EC50 [3] | AC50 [4] | IC50 [5] | IC50 (Jurkat) | IC50 [6] | AC50 (Caspase-6) | AC50 (Caspase-7) | IC50 (Caspase-3)
1 | CCCCC(=O)NC(c1ccc(N(C)C)cc1)c1ccc2cccnc2c1O (centres undefined) | 41.2 µM (inactive) | > 350 µM (not active) | 3.17 µM (inconclusive) | 0.626 µM (active) | 2.47 µM (active) | > 119 µM (inactive) | 2.51 µM (active) | 0.98 µM (active) | 1.72 µM (active) | 1.7 µM (active) |  |  |  | 
2 | CN(CC(=O)Nc1ccccc1Cl)C(=O)COC(=O)c1ccc([N+](=O)[O-])s1 |  |  |  |  |  |  |  |  |  |  | 8.73 µM (active) | 4.3 µM (active) | 20.6 µM (active) | 6.21 µM (active)
